Key:
[1] = test system: WS-1 human normal skin fibroblasts; experiment: Cytotoxicity, resazurin metabolism assay, WS-1; format: cell-based; details: 48 h, mean ± SD
Excerpt: (§1) Human lung carcinoma (A-549), human colon adenocarcinoma (DLD-1), human normal fibroblasts (WS1), mice melanoma (B16-F1), Human glioma (U-251), Human hepatocellular carcinoma (HEP G2), Human prostate adenocarcinoma (PC-3), Human ovary teratocarcinoma metastatic (PA-1), Human breast adenocarcinona metastatic (MDA-MB-231), Human breast adenocarcinoma (MCF-7) and Human malignant melanoma (SK-MEL-2) cell lines were obtained from the American Type Culture Collection (ATCC). All cell lines were cultured in minimum essential medium containing Earle's salts and L-glutamine (Mediatech Cellgro, Va.), to which was added 10% fetal bovine serum (Hyclone), vitamins (1×), penicillin (100 I.U./mL) and streptomycin (100 μg/mL), essential amino acids (1×) and sodium pyruvate (1×) (Mediatech Cellgro, Va.). Cells were kept at 37° C. in a humidified environment containing 5% CO2.
(§2) Exponentially growing cells were plated in 96-well microplates (Costar, Corning Inc.) at a density of 5×10^3 cells per well in 100 μL of culture medium and were allowed to adhere for 16 hours before treatment. Increasing concentrations of each compound in DMSO (Sigma-Aldrich) were then added (100 μL per well) and the cells were incubated for 48 h. […] Cytotoxicity was assessed using resazurin (O'Brien, J. et al., Eur. J. Biochem. 2000, 267, 5421-5426) on an automated 96-well Fluoroskan Ascent F1™ plate reader (Labsystems) using excitation and emission wavelengths of 530 nm and 590 nm, respectively. Fluorescence was proportional to the cellular metabolic activity in each well. Survival percentage was defined as the fluorescence in experimental wells compared to that in control wells after subtraction of blank values. Each experiment was carried out three times in triplicata. IC50 results were expressed as mean±standard deviation.
(§3) The cytotoxicity of triterpenes (1-8) and corresponding glycosides (9-30) (Table 2 below) as well as of germanicane-type triterpenes and glycosides (31-44) (Table 3 below) was assessed towards human cancer (A-549, DLD-1), mouse melanoma (B16-F1) and human normal skin fibroblast (WS1) cell lines using the resazurin reduction test (RTT test) as previously described (O'Brien, J. et al., Eur. J. Biochem. 2000, 267, 5421-5426). Measurements of fluorescence were carried out after 48 continuous hours of contact between compounds and cells. Results presented in Tables 2 and 3 below express the concentration inhibiting 50% of the cell growth (IC50). Known for its activity against A-549, betulinic acid (3) was used as a positive control in this experimentation. […] The cytotoxic activity of some of these compounds was also assessed using the Hoechst DNA assay (Table 4 below).

[2] = test system: DLD-1 human colorectal adenocarcinoma cells; experiment: Cytotoxicity, resazurin metabolism assay, DLD-1; format: cell-based; details: 48 h, mean ± SD
Excerpt: as §1, §2, §3

[3] = test system: A-549 human lung carcinoma cells; experiment: Cytotoxicity, resazurin metabolism assay, A-549; format: cell-based; details: 48 h, mean ± SD
Excerpt: as §1, §2, §3

[4] = test system: A-549 cells; experiment: Cytotoxicity, Hoechst DNA assay, A-549; format: cell-based, human; details: ± SD
Excerpt: as §1, §3

[5] = test system: B16-F1 mouse melanoma cells; experiment: Cytotoxicity, resazurin metabolism assay, B16-F1; format: cell-based; details: 48 h, mean ± SD
Excerpt: as §1, §2, §3

[6] = test system: WS-1 cells; experiment: Cytotoxicity, Hoechst DNA assay, WS-1; format: cell-based, human; details: ± SD
Excerpt: as §1, §3

[7] = test system: DLD-1 cells; experiment: Cytotoxicity, Hoechst DNA assay, DLD-1; format: cell-based, human; details: ± SD
Excerpt: as §1, §3

[8] = test system: B16-F1 cells; experiment: Cytotoxicity, Hoechst DNA assay, B16-F1; format: cell-based, mouse; details: ± SD
Excerpt: as §1, §3

SMILES | IC50 [1] [µM] | IC50 [2] [µM] | IC50 [3] [µM] | IC50 [4] [µM] | IC50 [5] [µM] | IC50 [6] [µM] | IC50 [7] [µM] | IC50 [8] [µM]
C=C(C)[C@@H]1CC[C@]2(C)CC[C@]3(C)[C@H](CC[C@@H]4[C@@]5(C)CC[C@H](O)C(C)(C)[C@@H]5CC[C@]43C)[C@@H]12 [Compound 1, Lupeol, reference compound] | 63 ± 3 | 125 ± 6 | 165 ± 8 | 130 ± 20 | 104 ± 6 | 70 ± 10 | 102 ± 6 | 72 ± 9
C=C(C)[C@@H]1CC[C@]2(CO)CC[C@]3(C)[C@H](CC[C@@H]4[C@@]5(C)CC[C@H](O)C(C)(C)[C@@H]5CC[C@]43C)[C@@H]12 [Compound 2, Betulin, reference compound] | 3.58 ± 0.07 | 6.6 ± 0.3 | 3.8 ± 0.09 | 4.5 ± 0.3 | 13.8 ± 0.5 | 5 ± 1 | 5.9 ± 0.6 | 10.3 ± 0.7
C=C(C)[C@@H]1CC[C@]2(COC(C)=O)CC[C@]3(C)[C@H](CC[C@@H]4[C@@]5(C)CC[C@H](OC(C)=O)C(C)(C)[C@@H]5CC[C@]43C)[C@@H]12 [Compound 4, 3,28-Diacetoxybetulin] | > 95 | > 95 | > 95 | – | > 95 | – | – | –
C=C(C)[C@@H]1CC[C@]2(COC(C)=O)CC[C@]3(C)[C@H](CC[C@@H]4[C@@]5(C)CC[C@H](O)C(C)(C)[C@@H]5CC[C@]43C)[C@@H]12 [Compound 5, 28-Acetoxybetulin] | 44 ± 2 | 56 ± 4 | 75 ± 7 | 49 ± 7 | 43 ± 2 | 47 ± 2 | 46 ± 5 | 35 ± 1
C=C(C)[C@@H]1CC[C@]2(CO)CC[C@]3(C)[C@H](CC[C@@H]4[C@@]5(C)CC[C@H](OC(C)=O)C(C)(C)[C@@H]5CC[C@]43C)[C@@H]12 [Compound 6, 3-Acetoxybetulin] | > 253 | > 253 | > 253 | 90 ± 10 | > 253 | > 180 | > 253 | 42 ± 6
C=C(C)[C@@H]1CC[C@]2(C(=O)OC)CC[C@]3(C)[C@H](CC[C@@H]4[C@@]5(C)CC[C@H](O)C(C)(C)[C@@H]5CC[C@]43C)[C@@H]12 [Compound 7, Methyl Betulinate] | 19 ± 2 | 25 ± 4 | 19 ± 3 | 19 ± 2 | 26 ± 1 | 19 ± 4 | 21 ± 1 | 15.7 ± 0.9
C=C(C)[C@@H]1CC[C@]2(C(=O)O)CC[C@]3(C)[C@H](CC[C@@H]4[C@@]5(C)CC[C@H](OC(C)=O)C(C)(C)[C@@H]5CC[C@]43C)[C@@H]12 [Compound 24, 3-Acetoxybetulinic Acid] | 57 ± 6 | 20 ± 2 | 18 ± 2 | – | – | – | – | –
C=C(C)[C@@H]1CC[C@]2(CO)CC[C@]3(C)[C@H](CC[C@@H]4[C@@]5(C)CC[C@H](O[C@@H]6O[C@H](CO)[C@H](O)[C@H](O)[C@H]6O)C(C)(C)[C@@H]5CC[C@]43C)[C@@H]12 [Compound 25, 3-O-β-D-Galactopyranoside of Betulin] | > 100 | > 100 | > 100 | – | – | – | – | –
C=C(C)[C@@H]1CC[C@]2(CO)CC[C@]3(C)[C@H](CC[C@@H]4[C@@]5(C)CC[C@H](O[C@@H]6OC[C@@H](O)[C@H](O)[C@H]6O)C(C)(C)[C@@H]5CC[C@]43C)[C@@H]12 [Compound 27, 3-O-β-D-Xylopyranoside of Betulin] | > 100 | > 100 | 90 ± 10 | – | – | – | – | –
C=C(C)[C@@H]1CC[C@]2(C(=O)O)CC[C@]3(C)[C@H](CC[C@@H]4[C@@]5(C)CC[C@H](O[C@@H]6O[C@H](CO)[C@H](O)[C@H](O)[C@H]6O)C(C)(C)[C@@H]5CC[C@]43C)[C@@H]12 [Compound 28, 3-O-β-D-Galactopyranoside of Betulinic Acid] | > 100 | > 100 | > 100 | – | – | – | – | –
CC1(C)CC[C@]23CC[C@]4(C)[C@H](CC[C@@H]5[C@@]6(C)CC[C@H](O)C(C)(C)[C@@H]6CC[C@]54C)[C@H]2[C@H]1OC3 [Compound 31, Allobetulin] | > 100 | > 100 | > 100 | – | – | – | – | –
CC1(C)CC[C@]23CC[C@]4(C)[C@H](CC[C@@H]5[C@@]6(C)CC[C@H](O)C(C)(C)[C@@H]6CC[C@]54C)[C@H]2[C@H]1OC3=O [Compound 32, 28-Oxyallobetulin] | 70 ± 9 | > 100 | > 100 | – | – | – | – | –
C[C@@H]1O[C@@H](O[C@H]2CC[C@]3(C)[C@H]4CC[C@@H]5[C@H]6[C@H]7OC[C@@]6(CCC7(C)C)CC[C@@]5(C)[C@]4(C)CC[C@H]3C2(C)C)[C@H](O)[C@H](O)[C@H]1O [Compound 34, 3-O-α-L-Rhamnopyranoside of Allobetulin] | 75 ± 5 | > 100 | > 100 | – | – | – | – | –
CC1(C)CCC23CCC4(C)C(CCC5C6(C)CCC(OC7OCC(O)C(O)C7O)C(C)(C)C6CCC54C)C2C1OC3 [Compound 35, 3-O-α-D-Arabinopyranoside of Allobetulin] | > 100 | > 100 | > 100 | – | – | – | – | –
CC1(C)CC[C@]23CC[C@]4(C)[C@H](CC[C@@H]5[C@@]6(C)CC[C@H](O[C@H]7O[C@H](CO)[C@@H](O)[C@H](O)[C@@H]7O)C(C)(C)[C@@H]6CC[C@]54C)[C@H]2[C@H]1OC3 [Compound 37, 3-O-α-D-Mannopyranoside of Allobetulin] | > 100 | > 100 | > 100 | – | – | – | – | –
CC1(C)CC[C@]23CC[C@]4(C)[C@H](CC[C@@H]5[C@@]6(C)CC[C@H](O[C@@H]7OC[C@@H](O)[C@H](O)[C@H]7O)C(C)(C)[C@@H]6CC[C@]54C)[C@H]2[C@H]1OC3 [Compound 38, 3-O-β-D-Xylopyranoside of Allobetulin] | > 100 | > 100 | > 100 | – | – | – | – | –
CC1(C)CCC23CCC4(C)C(CCC5C6(C)CCC(OC7OC(CO)C(O)C(O)C7O)C(C)(C)C6CCC54C)C2C1OC3=O [Compound 39, 3-O-β-D-Glucopyranoside of 28-Oxyallobetulin] | > 100 | > 100 | > 100 | – | – | – | – | –
C[C@@H]1O[C@@H](O[C@H]2CC[C@]3(C)[C@H]4CC[C@@H]5[C@H]6[C@H]7OC(=O)[C@@]6(CCC7(C)C)CC[C@@]5(C)[C@]4(C)CC[C@H]3C2(C)C)[C@H](O)[C@H](O)[C@H]1O [Compound 40, 3-O-α-L-Rhamnopyranoside of 28-Oxyallobetulin] | > 100 | > 100 | > 100 | – | – | – | – | –
CC1(C)CC[C@]23CC[C@]4(C)[C@H](CC[C@@H]5[C@@]6(C)CC[C@H](O[C@H]7OC[C@@H](O)[C@@H](O)[C@@H]7O)C(C)(C)[C@@H]6CC[C@]54C)[C@H]2[C@H]1OC3=O [Compound 41, 3-O-α-D-Arabinopyranoside of 28-oxyallobetulin] | > 100 | > 100 | > 100 | – | – | – | – | –
CC1(C)CC[C@]23CC[C@]4(C)[C@H](CC[C@@H]5[C@@]6(C)CC[C@H](O[C@@H]7O[C@H](CO)[C@H](O)[C@H](O)[C@H]7O)C(C)(C)[C@@H]6CC[C@]54C)[C@H]2[C@H]1OC3=O [Compound 42, 3-O-β-D-Galactopyranoside of 28-Oxyallobetulin] | > 100 | > 100 | > 100 | – | – | – | – | –
CC1(C)CC[C@]23CC[C@]4(C)[C@H](CC[C@@H]5[C@@]6(C)CC[C@H](O[C@H]7O[C@H](CO)[C@@H](O)[C@H](O)[C@@H]7O)C(C)(C)[C@@H]6CC[C@]54C)[C@H]2[C@H]1OC3=O [Compound 43, 3-O-α-D-Mannopyranoside of 28-oxyallobetulin] | > 100 | > 100 | > 100 | – | – | – | – | –
CC1(C)CC[C@]23CC[C@]4(C)[C@H](CC[C@@H]5[C@@]6(C)CC[C@H](O[C@@H]7OC[C@@H](O)[C@H](O)[C@H]7O)C(C)(C)[C@@H]6CC[C@]54C)[C@H]2[C@H]1OC3=O [Compound 44, 3-O-β-D-Xylopyranoside of 28-Oxyallobetulin] | > 100 | > 100 | > 100 | – | – | – | – | –

Source: patent publication US20100331269A1, “TRITERPENES DERIVATIVES AND USES THEREOF AS ANTITUMOR AGENTS OR ANTI-INFLAMMATORY AGENTS” (priority 2006, published 2010)
